*1 amine or outer side, *2 acyl side, *3 side chain or, on linkers, in order; H or OH if unused. Where no end group is shown, it is not given here. [ ]: non-standard residue; d: D form. βAsp = O=C(O)[C@H](CC(=O)[*:2])N[*:1]
Tests used:
[1] = system: auto-antibodies in RA sera; experiment: ELISA detection of auto-antibodies in sera on Thy-GA-peptide conjugate coated plates (Example 2); type: binding, human; details: sera diluted one-hundred fold; MTP coated with Thy-GA conjugate 10 μg/ml; absorbency at 450 nm
Description: It was investigated whether auto-antibodies would recognise an Asn-315 derived septa-peptide and whether such auto-antibodies are a characteristic feature of rheumatoid arthritis. In order to carry out such investigations the IgG Fc Asn-315 derived (βL) septa-peptide Trp-Leu-Asp-β-Gly-Lys-Glu-Tyr, was manufactured synthetically. The peptide used was a preparation of linear (αL form) Trp-Leu-Asn-Gly-Lys-Glu-Tyr peptide heated to promote isomerisation by the following procedure. The peptide was dissolved in the buffer and heated for 4 hours at 90° C. to promote isomerisation and/or optical inversion. The resulting mix of isomerised (βL) optically inverted (αD and βD) and linear (αL) peptides were analysed by RP-HPLC using a 15-35% acetonitrile gradient in 0.1% TFA over 10 minutes with a flow rate of 1 ml/min, and the isomerisation status of the resulting peaks were studied by amino-acid analysis as described above. This peptide was dissolved at 5 mg/ml in 0.2 M Na-Phosphate pH 9.2. […]
0.5 ml thyroglobulin (30 mg/ml) in 0.1 M Na-phosphate buffer pH 8.0, was added drop-wise (over 2 minutes) and under constant mixing to 0.5 mL of the following solution: 10% GA, 40% H2O, 50% 0.2 M Na-Phosphate pH 8.0. […] The final volume was adjusted to 1500 μL and the protein concentration was determined by a BioRad protein assay performed according to the manufacturers instructions. […]

[2] = system: RA autoantibodies; experiment: Competition ELISA: binding of RA autoantibodies to Thy-GA-Trp-Leu-*Asx-Gly-Lys-Glu-Tyr coated plates (Example 3); set-up: species or system human; details: competitor 50 μl of 50 μg/ml pre-incubated with serum 17 hours at 4° C.; 6 RA sera
Description: The Thy-GA-Trp-Leu-*Asx-Gly-Lys-Glu-Tyr conjugate was dissolved in PBS to a final concentration of 10 μg/ml, and 100 μL of this solution is pipetted into the wells of a micro-titre-plate (MTP, flat-well polysorb, Nunc). the plate was blocked as described (Bonde et al 1994), and serum samples diluted one-hundred fold in 10 mM Na-phosphate, 140 mM NaCl, 0.1% tween-20, 1% BSA pH 7.4 (assay buffer) were added. The MTP was left for one hour ±5 minutes on a rotary shaker at 20° C. The plates were washed five times in washing buffer (25 mM tris, 140 mM NaCl, 0.1% tween-20 pH 7.4), by a manual plate washer. One-hundred μL assay buffer containing a one-thousand fold dilution of Perxidase conjugated rabbit anti human λ-chains (Dako 063) and κ-chains (Dako 013) was added into each well. The MTP was again incubated for one hour ±5 minutes on a rotary mixer at 20° C. After 5 times washing, 100 μl of peroxidase substrate was added (3,3′,5,5′ tetramethylbenzidine dihydrochloride (TMB), Kirkegaard & Perry Laboratories, USA) and incubated for 15±2 minutes at room temperature (18-22° C.) in the dark. After addition of 0.18 M H2SO4, the absorbency was measured at 450 nm.
The experiment was carried out as follows. Serum samples were diluted one-hundred fold in 10 mM Na-phosphate, 140 mM NaCl, 0.1% tween-20, 1% BSA pH 7.4 (assay buffer). Two-hundred μl was added to 1.5 ml polypropylene tubes followed by addition of 50 μl of the following reagents dissolved in assay buffer at a concentration of 50 μg/ml:
The tubes were placed at 4° C. for 17 hours, and one-hundred μl of the mixture was added into MTP coated with Thy-GA-Trp-Leu-*Asx-Gly-Lys-Glu-Tyr conjugate. The assay was performed as described above under example 2.

[3] = system: auto-antibodies reactive with isomerised IgG Fc Asn-315 derived peptides; experiment: Homogeneous RIA with 125I Thy-GA-Trp-Leu-*Asx-Gly-Lys-Glu-Tyr tracer, competition with peptides (Example 4); type: binding, human; details: highest concentration (10,000 ng/ml); P-0.01 by Student's T-Test
Description: A homogeneous RIA assay was developed for measurement of auto-antibodies with reactivity towards the isomerised form of the epitope Trp-Leu-Asn-Gly-Lys-Glu-Tyr derived from the IgG CH2 region. The assay was performed by incubating serum samples with ^125I Thy-GA-Trp-Leu-*Asx-Gly-Lys-Glu-Tyr overnight followed by precipitation of immune-complexes with protein A Sepharose.
Serum samples are diluted 1:200 in IMP buffer (IMP-buffer: 10 mm Na-Phosphate, pH 7.4, 140 mM NaCl, 5 mM EDTA, 0.5% Triton X-100, 0.1% BSA, 10 μg/ml soy-bean trypsin inhibitor). A Thy-GA-Trp-Leu-*Asx-Gly-Lys-Glu-Tyr conjugate is prepared as described in example 2 and iodinated with ^125I using the chloramine T protocol: 100 μg of the conjugate is diluted in 0.25 M Na2HPO4 to a total volume of 140 μl. 1.5 mCi Na^125I is added followed by 10 μL Chloramin-T (1 mg/ml, prepared freshly). The solution is vortexed for 30 seconds and 150 μL methionine (1 mg/ml) is added and immediately vortexed for 120 sec. The tracer is purified on size exclusion column (type: BIOSEP SEC S-2000, size: 300×7.80 mm) equilibrated with PBS containing 1% BSA Plow rate 1.0 ml/min. 500 μl fractions are collected and analysed in a scintillation counter (γ-counter). The fractions containing the tracer are pooled and used in the homogeneous RIA assay format. […]

[4] = system: Lewis rats; experiment: Induction of Experimental Autoimmune Encephalomyelitis by immunisation with MBP87-99 peptides (Example 7); type: in vivo, rat; details: for incidence of full-blown EAE (clinical score ≧2) / time of minimum weight / reduction of weight compared to PBS controls at minimum: Lewis rats, 200 μg peptide in CFA i.d.; for reduction of weight compared to PBS controls at minimum: 16 days post immunization
Description: Experimental Autoimmune Encephalomyelitis (EAE) is a paralytical central nervous system (CNS) disease that can be induced readily in susceptible animals by immunisation with myelin proteins. In this experiment MBP87-99 peptides (VHFFKNIVTPRTP) in linear and isomerised forms were used for induction of clinical EAE in Lewis rats.
36 female Lewis (L haplotype, Harlan) rats, 8 weeks of age were used in the experiment.
The animals were randomly assigned to one of the following three treatment groups: 1) a group receiving Asn or isoAsp MBP87-99 peptides 2) a positive control group receiving whole guinea pig MBP, and a negative control receiving PBS. The study was performed in a blinded fashion where the observer was unaware of the treatment of the animal. Below a detailed description of the three treatment groups is provided.
1) MBP87-99 Group: Peptides were dissolved in PBS (2 mg/ml). The peptide solution was mixed 1:1 with CFA supplemented with Mycobacterium tubercolosum H37RA, 4 mg/ml and mixed until an emulgate Wars formed. 200 μl emulgate was injected per rat, intra-dermally (i.d.) in the root of the tail (containing 200 μg MBP87-99 and 400 μg Mycobacterium).
The neurological function in immunised animals was evaluated daily. The evaluation was performed blinded by an observer unaware of the treatment groups and codes used in the experiment. This evaluation was performed daily, where the clinical signs of EAE were noted. The clinical signs of EAE were scored according to the following scale: grade 0=no clinical signs, grade 1=tail paralysis or unsteady gait, grade 2=hind leg paraparesis, grade 3=hind leg paralysis, grade 4=complete paralysis (tetraplegia) and grade 5 moribound state or death.
The weight of animals was also measured on a daily basis, as one of the earliest signs of EAE is a weight reduction. The weight of the MBP and peptide immunised animals was compared to the PBS control-group.

[5] = system: Lewis rats; experiment: Oral tolerance: feeding of isoAspartyl MBP87-99 before EAE induction (Example 8); type: in vivo, rat
Description: 32 female Lewis (L haplotype, Harlan) rats, 8 weeks of age were used in the experiment.
Animals were immunised with the iso-aspartyl form of MBP87-99. Peptides were dissolved in PBS (2 mg/). The peptide solution was mixed 1:1 with CFA supplemented with Mycobacterium tubercolosum H37RA, 4 mg/ml and mixed until an emulgate was formed. 200 μl emulgate was injected per rat, intra-dermally (i.d.) in the root of the tail (containing 200 μg MBP87-99 and 400 μg Mycobacterium).
The solutions containing the MBP87-99 isoAspartyl peptides are fed to the animals using a plastic syringe. Control animals are given PBS alone. The effect of the oral administered peptide preparations is investigated at two dosing regimens (one dose 7 days before immunisation vs. 3 doses at one-week intervals before the immunisation. Furthermore, the effect of the dose of orally administered *Asx containing peptide on disease expression is investigated. Rats are fed various amounts of the peptide listed above 14 days before the day of immunisation (day −14) and at day −7 and 0 (day of immunisation). The rats are given either 25, 100 or 500 μg of the peptide, and eight rats are allocated to each treatment regimen as indicated in the table below.
The disease progression was monitored daily by scoring the neurological function in immunized animals as described in example 7. In addition animals were weighed daily. In addition, the animals were sacrificed sixteen days after immunisation for histopathological examination. The rat brains and spinal cords were dissected, fixed in 70% ethanol, containing 5% acetic acid and 4% formalin, dehydrated and embedded in paraffin. Multiple 5 μm thick section were prepared from cerebellum, brain stem, spinal cord C1-4 and L1-6 and stained with hematoxylin-eosin. The frequency of inflammatory infiltrates were scored, using hematoxylineosin stained section, as follows: 0 No inflammation, 1 small number of perivascular infiltration present in the tissue, 2 inflammation with several perivascular infiltrates, and 3 several perivascular infiltrates and tissue necrosis. […]

Thy-GA-Glu-Lys-Ala-His-*Asx-Gly-Gly-Arg: another irrelevant Thy-GA conjugate [reference compound]
autoantibody reactivity of RA RF+ sera compared with RA RF- and control sera (ELISA signal) [1]: no differentiation between the groups

Thy-GA-Trp-Leu-*Asx-Gly-Lys-Glu-Tyr: peptide coupled to thyroglobulin with glutaraldehyde
competition of binding of RA autoantibodies to Thy-GA-Trp-Leu-*Asx-Gly-Lys-Glu-Tyr coated plates [2]: able to compete out the binding
reactivity in competition RIA (percent inhibition by competing peptide), group basis [3]: significant reactivity

isoAsp MBP87-99: MBP87-99 peptide (VHFFKNIVTPRTP) in isomerised form, Asn 92 giving iso-Asp (VHFFK[βAsp]IVTPRTP)
incidence of full-blown EAE (clinical score ≧2) [4]: 25%
time of minimum weight [4]: 16 days post immunization
reduction of weight compared to PBS controls at minimum [4]: 19%
EAE induction (result in words) ([4]; onset, peak score day and score levels comparable to non-modified control peptide): induced significant EAE
clinical score of all animals affected with EAE ([4]; scale grade 0-5): ≥ 3
EAE development after multiple 500 μg oral feedings ([5]; 500 μg fed at days -14, -7 and 0): complete suppression
EAE development after multiple oral feedings ([5]; fed at days -14, -7 and 0 before immunisation with iso-aspartyl MBP87-99): complete suppression
mean histological score (number of inflammation foci) compared to controls ([5]; multiple oral doses, sixteen days after immunisation, P<0.05): significantly reduced

Trp-Leu-*Asx-Gly-Lys-Glu-Tyr
autoantibody reactivity of RA RF+ sera compared with RA RF- and control sera (ELISA signal) [1]: elevated autoantibody reactivity
competition of binding of RA autoantibodies to Thy-GA-Trp-Leu-*Asx-Gly-Lys-Glu-Tyr coated plates [2]: could be competed out

VHFFKNIVTPRTP [Asn MBP87-99, non-modified MBP87-99 peptide, reference compound]
incidence of full-blown EAE (clinical score ≧2) [4]: 75%
time of minimum weight [4]: 16 days post immunization
reduction of weight compared to PBS controls at minimum [4]: 26%
fraction of animals affected by EAE with relatively mild symptoms (clinical score <3) ([4]; scale grade 0-5): one third
